This note sets out measurements from US10076519B2 (CYTOKINETICS, INC., priority 2010, dated 2018).

For one experiment, the system named is rabbit skeletal myofibrils (fast skeletal myofibrils). As to the kind of experiment: Activation of fast skeletal myofibrils (PUMA assay, PK/LDH-coupled ATPase at pCa25). Format: biochemical. The conditions noted are these: AC1.4 determined according to the procedure of Example 39; reported as class symbols. An outline of the steps:
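Detergent-washed rabbit psoas myofibrils (~90% fast fibres, calcium-regulated) assayed at calcium giving 25% of maximal ATPase rate (pCa25). ADP turnover coupled via pyruvate kinase/lactate dehydrogenase to NADH oxidation, read at 340 nm. Buffer 12 mM PIPES, 2 mM MgCl2, 1 mM DTT, pH 6.8; AC1.4 values derived.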
Regarding `CC(C)(CNc1ccc(-c2ccc3[nH]c(=O)oc3c2)nn1)c1ccc(F)cc1`, the “Mean AC1.4” value was “A (A=<1 uM)”. The same measure, in the same setting: then `CC(C)(CNc1ccc(-c2ccc3cn[nH]c3c2)nn1)c1ccc(F)cc1` [(6-(1H-indazol-6-yl)pyridazin-3-yl)[2-(4-fluorophenyl)-2-methylpropyl]amine], with “A (A=<1 uM)”; and `NC(=O)c1cccc(-c2ccc(NCC3(c4ccccn4)CCC3)nn2)c1`, with “A (A=<1 uM)”; and `NC(=O)c1ccc(F)c(-c2ccc(NCC3(c4ccccn4)CCC3)nn2)c1`, with “A (A=<1 uM)”. The same measure, in the same setting: then `CCNc1n[nH]c2ccc(-c3ccc(NCC4(c5ncccc5F)CCC4)nn3)cc12` [{6-[3-(ethylamino)(1H-indazol-5-yl)]pyridazin-3-yl}{[(3-fluoro(2-pyridyl))cyclobutyl]methyl}amine], with “A (A=<1 uM)”.

For `CC(C)(O)c1n[nH]c2ccc(-c3ccc(NCC(C)(C)c4ccc(F)cc4)nn3)cc12` [2-[5-(6-{[2-(4-fluorophenyl)-2-methylpropyl]amino}pyridazin-3-yl)-1H-indazol-3-yl]propan-2-ol], the “Mean AC1.4” value is “B (B=1-10 uM)”. Take `CNC(=O)c1cc(-c2ccc(NCC3(c4ncccc4F)CCC3)nn2)ccc1F`: the “Mean AC1.4” value is recorded as “B (B=1-10 uM)”.

Turning to `COc1ccc(C2(CNc3ccc(-c4ccc5[nH]ncc5c4)nn3)CCC2)nc1` [(6-(1H-indazol-5-yl)pyridazin-3-yl){[(5-methoxy(2-pyridyl))cyclobutyl]methyl}amine], the “Mean AC1.4” value is on record as “B (B=1-10 uM)”. For `C=Cc1ccc(NCC(C)(C)c2ccc(F)cc2)nn1` [N-(2-(4-fluorophenyl)-2-methylpropyl)-6-vinylpyridazin-3-amine], the “Mean AC1.4” value is “B (B=1-10 uM)”. Same read-out and setting: then `N=C(N)Nc1n[nH]c2ccc(-c3ccc(NCC4(c5ncccc5F)CCC4)nn3)cc12`, with “B (B=1-10 uM)”; and `COc1cccc(C2(CNc3ccc(-c4ccc5cn[nH]c5c4)nn3)CCC2)n1` [(6-(1H-indazol-6-yl)pyridazin-3-yl){[(6-methoxy(2-pyridyl))cyclobutyl]methyl}amine], with “A (A=<1 uM)”; and `CC(C)(CNc1ccc(C(=O)NCC(N)=O)nn1)c1ccc(F)cc1` [N-(carbamoylmethyl)(6-{[2-(4-fluorophenyl)-2-methylpropyl]amino}pyridazin-3-yl)carboxamide], with “D (D=>20 uM)”. The same measure, in the same setting: for `CC(C)(C)OC(=O)N(CC(C)(C)c1ccc(F)cc1)c1ccc(-c2ccc3[nH]c(=O)c(=O)[nH]c3c2)nn1` [(tert-butoxy)-N-[6-(2,3-dioxo(1,4-dihydroquinoxalin-6-yl))pyridazin-3-yl]-N-[2-(4-fluorophenyl)-2-methylpropyl]carboxamide] the value was “D (D=>20 uM)”.

The experiment is the same for the next values; noted with them: median AC1.4 class, procedure of Example 39.
Turning to `O=C(O)c1cccc(-c2ccc(NC[C@]3(c4ncccc4F)C[C@H](F)C3)nn2)c1` [3-[6-({[3-fluoro-1-(3-fluoro(2-pyridyl))cyclobutyl]methyl}ami-no)pyridazin-3-yl]benzoic acid], the “Mean AC1.4” value is reported as “A (A=<1 uM)”. Same read-out and setting: then `CC(C)(Nc1ccc(-c2ccccc2)nn1)c1ccccc1` [(1-methyl-1-phenylethyl)(6-phenylpyridazin-3-yl)amine], with “B (B=1-10 uM)”.

On to `NC(=O)CNc1ncc(-c2ccc(NCC3(c4ncccc4F)CCC3)nn2)cn1`, for which the “Mean AC1.4” value was “C (C=10-20 uM)”.

In the case of `Fc1cccnc1C1(CNc2ccc(-c3ccc4cn[nH]c4c3)nn2)CC(F)(F)C1` [(6-(1H-indazol-6-yl)pyridazin-3-yl){[3,3-difluoro-1-(3-fluoro(2-pyridyl))cyclobutyl]methyl}amine], the “Mean AC1.4” value is “B (B=1-10 uM)”. For `Nc1ncccc1-c1ccc(NCC2(c3ncccc3F)CCC2)nn1` [[6-(2-amino(3-pyridyl))pyridazin-3-yl]{[(3-fluoro(2-pyridyl))cyclobutyl]methyl}amine], the “Mean AC1.4” value is listed as “B (B=1-10 uM)”.

On to `NCc1cnc(-c2ccc(NCC3(c4ncccc4F)CCC3)nn2)s1` [{6-[5-(aminomethyl)(1,3-thiazol-2-yl)]pyridazin-3-yl}{[(3-fluoro(2-pyridyl))cyclobutyl]methyl}amine], for which the “Mean AC1.4” value is listed as “B (B=1-10 uM)”. In the case of `NC(=O)Nc1ccc(-c2ccc(NC3(c4ccc(F)cc4)CCC3)nn2)cc1`, the “Mean AC1.4” value was “A (A=<1 uM)”. On the same count and under the same terms, for `NC(=O)c1cnc(-c2ccc(NCC3(c4ncccc4F)CCC3)nn2)o1` the value was “B (B=1-10 uM)”; for `COC(=O)NCc1cnc(-c2ccc(NCC3(c4ncccc4F)CCC3)nn2)s1` [N-({2-[6-({[(3-fluoro(2-pyridyl))cyclobutyl]methyl}ami-no)pyridazin-3-yl](1,3-thiazol-5-yl)}methyl)methoxycarboxamide], “B (B=1-10 uM)”; for `CCOC(=O)c1ccc(NCC2(c3ncccc3F)CCC2)nn1`, “D (D=>20 uM)”.

As for `N#Cc1ccc(-c2ccc(NCC3(c4ncccc4F)CCC3)nn2)s1` [5-[6-({[(3-fluoro-2-pyridyl)cyclobutyl]methyl}ami-no)pyridazin-3-yl]thiophene-2-carbonitrile], the “Mean AC1.4” value was “B (B=1-10 uM)”.

The experiment is the same for the next values; noted with them: median AC1.4 reported as class; procedure of Example 39.
`O=C(NC1CS(=O)(=O)C1)c1cccc(-c2ccc(NC[C@]3(c4ncccc4F)C[C@H](F)C3)nn2)c1` [N-(1,1-dioxothietan-3-yl){3-[6-({[3-fluoro-1-(3-fluoro(2-pyridyl))cyclobutyl]methyl}ami-no)pyridazin-3-yl]phenyl}carboxamide]: the “Mean AC1.4” value was “B (B=1-10 uM)”.

`Cn1nccc1CNC(=O)c1ccc(NCC2(c3ncccc3F)CCC2)nn1` [[6-({[(3-fluoro(2-pyridyl))cyclobutyl]methyl}ami-no)pyridazin-3-yl]-N-[(1-methylpyrazol-5-yl)methyl]carboxamide]: the “Mean AC1.4” value is listed as “D (D=>20 uM)”.

`O=C(O)c1cccc(-c2ccc(NC[C@]3(c4ncccc4F)C[C@H](F)C3)nn2)c1O` [3-[6-({[3-fluoro-1-(3-fluoro(2-pyridyl))cyclobutyl]methyl}ami-no)pyridazin-3-yl]-2-hydroxybenzoic acid]: the “Mean AC1.4” value is “C (C=10-20 uM)”. Same read-out and setting: then `Cc1cc(C#N)c(O)c(-c2ccc(NCC3(c4ncccc4F)CCC3)nn2)c1` [3-[6-({[(3-fluoro(2-pyridyl))cyclobutyl]methyl}ami-no)pyridazin-3-yl]-2-hydroxy-5-methylbenzenecarbonitrile], with “B (B=1-10 uM)”. In the case of `O=C(O)c1cc2cc(-c3ccc(NC[C@]4(c5ncccc5F)C[C@H](F)C4)nn3)ccc2[nH]1` [5-[6-({[3-fluoro-1-(3-fluoro(2-pyridyl))cyclobutyl]methyl}ami-no)pyridazin-3-yl]indole-2-carboxylic acid], the “Mean AC1.4” value is given as “B (B=1-10 uM)”.

Turning to `CNC(=O)c1cc(-c2ccc(NC[C@]3(c4ncccc4F)C[C@H](F)C3)nn2)ccc1F` [{2-fluoro-5-[6-({[3-fluoro-1-(3-fluoro(2-pyridyl))cyclobutyl]methyl}ami-no)pyridazin-3-yl]phenyl}-N-methylcarboxamide], the “Mean AC1.4” value is “C (C=10-20 uM)”.

As to `CCOC(=O)c1nc(NC(=O)c2ccc(NCC3(c4ncccc4F)CCC3)nn2)cn1C` [ethyl 4-{[6-({[(3-fluoro(2-pyridyl))cyclobutyl]methyl}ami-no)pyridazin-3-yl]carbonylamino}-1-methylimidazole-2-carboxylate], the “Mean AC1.4” value is reported as “D (D=>20 uM)”.
